The assay deals with Laccase NS51003. Description: ABTS laccase assay for relative laccase activity. The assay is classed as biochemical, Aspergillus. As for the experimental part:
One unit of activity is equal to the micromole of the oxidized product from ABTS per min per mg protein at pH 4.0 to 6.0 at 23° C. in an acetate buffer. […] A diluted enzyme solution (1.5 milliliter (ml)) was added to a mixture of 1.5 ml ABTS (0.5 millimole (mM)) solution and 1.5 ml of sodium acetate buffer (1 mM) to initiate the oxidization reaction. After mixing, incubation was conducted at 23° C., while the change in absorbance per minute was measured at 420 nm. Two Aspergillus laccases were used both from Novozymes (Bagsvaerd, Denmark), to compare with the enzyme compositions. […] NS51002 alone worked best at pH 4-5 while NS51003 worked best at pH 5-6. The ABTS laccase assay was used to evaluate the effects of cationic fixative polymer, lipase and the laccase activator of the dry strength compositions on laccase activity. The same amount of laccase active in each composition was used in the assay. In Table III, the relative activity numbers were determined by normalizing the values based on that of laccase alone at 100%.

The text below walks through data of patent US9663899B2, “Method for making lignocellulosic paper and paper product” (Solenis Technologies, L.P., priority 2015, dated 2017).

SMILES strings stand for the structures.

`O=S(=O)([O-])[O-].[Cu+2]` [copper sulfate]: the “effect on laccase activity” value (copper level 0.5 wt. %) is on record as “lost some of its original activity”, the “effect on laccase activity” value (copper sulfate in the composition) was “not significant” and the “effect on laccase activity” value (dosage of copper sulfate higher than 0.5%) is “negatively affected”.
